The source of these data is patent US20180094248A1, “Necroptosis Signaling as a Therapeutic Target for Alzheimer's Disease” (Arizona Board of Regents on behalf of Arizona State …, priority 2016, published 2018).

Test [1] deals with phosphorylated MLKL. The test can be described thus: Western blot of total and phosphorylated MLKL in primary neurons (NeuN experiment). Format: cell-based, mouse. The procedure: To probe for a direct link between necroptosis and neuronal loss in AD, we plated primary cortical neurons from APP/PS1 and wild type littermate mice. After seven days in vitro (DIV), neurons were treated with 10 μM of the necroptosis inhibitor 7-Cl-O-necrostatin (Nec15) or vehicle. Treatment was repeated at DIV 11. We then fixed neurons at DIV 11 and 15, and stained them for NeuN to count total number of neurons. […] To determine changes in necroptosis, we isolated proteins from neurons of the same four groups and measured the levels of total and phosphorylated MLKL by western blot.
(§1) Western blot and ELISA: The proteins were run using reducing conditions in precast gels (Thermo Fisher Scientific) and transferred to nitrocellulose membranes (iBlot, Thermo Fisher Scientific). […] The blots were then washed with TBS-T, and imaged/quantified using a LICOR Odyssey CLx (LI-COR Biosciences) attached to a Dell computer (OptiPlex 7010) running Windows 7 and Image Studio (version 1.0.11, LI-COR Biosciences). […]
Primary neuronal cultures—For the GFP experiments: Primary neurons were isolated from APP/PS1 and NonTg Po pups. […] Neurons were treated for a total of 15 days and the GFP fluorescence was measured every 4 days. […] All fluorescent measurements (excitation 488 nm, emission 509 nm) were performed using the Synergy HT multi-mode microplate reader with the Gen5 software (BioTek, Winooski, Vt.). […]

Test [2] concerns phosphorylated MLKL. The test can be described thus: Western blot of total and phosphorylated MLKL in brains of Nec-1S treated 5xFAD mice. Format: in vivo, mouse. Conditions: 8-month-old 5xFAD mice; 10 mg/kg i.p. once, then 0.5 mg/ml in drinking water for 21 days; vs vehicle. The procedure: Specifically, mice receive a single intraperitoneal injection of 10 mg/kg Nec1s after which they were given Nec1S in their drinking water at a concentration of 0.5 mg/ml for 21 days.
Protein Extraction: Human temporal gyms tissue samples (0.1 g/sample) were extracted in sequential buffers, from lower to higher detergent strength. Briefly, the samples were homogenized in TBS (50 mM Tris-HCl, pH 7.4, 175 mM NaCl, 5 mM EDTA, 1 mM N-ethyl-maleimide) containing protease inhibitors (Roche) and phosphatase inhibitors (Millipore). The protein extract was centrifuged at 120,000 g for 30 minutes at 4° C. The resulting supernatant represented the TBS soluble fraction. Pellets were homogenized in TBS/1% Triton X-100 and spun at 1000 g for 10 minutes at 4° C. The supernatant represented the Triton soluble fraction. Pellets were washed in TBS/1M sucrose and then homogenized in RIPA buffer. […]
as §1

On to `CN1C(=O)NC(Cc2c[nH]c3c(Cl)cccc23)C1=O` (stereo not drawn) [Nec1S, 5-((7-chloro-1 H-indol-3-yl)methyl)-3-methylimidazolidine-2,4-dione], for which the pMLKL level entry in the test with phosphorylated MLKL [1] (DIV 11, all four groups, NeuN experiment) is given as “not detectable”. In addition, the “ratio pMLKL/MLKL” value with phosphorylated MLKL [1] (DIV 15, 10 μM, APP/PS1-veh group vs the other three groups incl. APP/PS1-Nec1S) is “statistically different compared to the other three groups”. The pMLKL/MLKL ratio result with phosphorylated MLKL [2] is on record as “lower pMLKL/MLKL ratio”.
